Target: T1, EnoCa (enolase-1 from Chloroflexus aurantiacus) (Chloroflexus aurantiacus, UniProt A9WCM4)
T1 construct: gene eno; native protein purified from C. aurantiacus cells, untagged; homodimer, subunit ~46 kDa, total ~92-96 kDa
Assay: X-ray crystal structure of the complex
Type: binding
Settings: active site, closed conformation, second Mg2+ modelled; crystals at pH 9.0

T1 sequence (A9WCM4 whole entry): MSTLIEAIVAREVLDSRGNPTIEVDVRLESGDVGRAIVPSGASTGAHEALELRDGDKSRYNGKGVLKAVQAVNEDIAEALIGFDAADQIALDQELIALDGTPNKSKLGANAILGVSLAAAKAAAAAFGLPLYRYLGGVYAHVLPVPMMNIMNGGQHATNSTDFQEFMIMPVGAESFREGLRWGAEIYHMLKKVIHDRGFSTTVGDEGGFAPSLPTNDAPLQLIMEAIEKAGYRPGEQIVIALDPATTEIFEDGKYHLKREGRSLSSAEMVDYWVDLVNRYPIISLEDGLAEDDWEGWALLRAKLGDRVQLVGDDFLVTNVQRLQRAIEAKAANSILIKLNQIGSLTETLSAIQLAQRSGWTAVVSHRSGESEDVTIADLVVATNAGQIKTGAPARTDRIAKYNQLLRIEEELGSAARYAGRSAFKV

For `C=C(OP(=O)(O)O)C(=O)O` [phosphoenolpyruvate], the “X-ray crystal structure of the complex” value was “PEP itself is bound by Glu165, Glu206, Lys338, Arg367, and Ser368”.

Reference: PMC4450660, “Biochemical and Structural Characterization of Enolase from Chloroflexus aurantiacus: Evidence for a Thermophilic Origin” (Frontiers in Bioengineering and Biotechnology, 2015)
